Experimental findings from US10703756B2, “Pyrrolo[2,3-D]pyrimidinyl, pyrrolo[2,3-B]pyrazinyl, pyrrolo[2,3-B]pyridinyl acrylamides and epoxides thereof” (Pfizer Inc., priority 2015, dated 2020) are described below.

The target of experiment [1] is T1, JAK3 enzyme (Homo sapiens, UniProt P52333).
T1 sequence (P52333 1-1124): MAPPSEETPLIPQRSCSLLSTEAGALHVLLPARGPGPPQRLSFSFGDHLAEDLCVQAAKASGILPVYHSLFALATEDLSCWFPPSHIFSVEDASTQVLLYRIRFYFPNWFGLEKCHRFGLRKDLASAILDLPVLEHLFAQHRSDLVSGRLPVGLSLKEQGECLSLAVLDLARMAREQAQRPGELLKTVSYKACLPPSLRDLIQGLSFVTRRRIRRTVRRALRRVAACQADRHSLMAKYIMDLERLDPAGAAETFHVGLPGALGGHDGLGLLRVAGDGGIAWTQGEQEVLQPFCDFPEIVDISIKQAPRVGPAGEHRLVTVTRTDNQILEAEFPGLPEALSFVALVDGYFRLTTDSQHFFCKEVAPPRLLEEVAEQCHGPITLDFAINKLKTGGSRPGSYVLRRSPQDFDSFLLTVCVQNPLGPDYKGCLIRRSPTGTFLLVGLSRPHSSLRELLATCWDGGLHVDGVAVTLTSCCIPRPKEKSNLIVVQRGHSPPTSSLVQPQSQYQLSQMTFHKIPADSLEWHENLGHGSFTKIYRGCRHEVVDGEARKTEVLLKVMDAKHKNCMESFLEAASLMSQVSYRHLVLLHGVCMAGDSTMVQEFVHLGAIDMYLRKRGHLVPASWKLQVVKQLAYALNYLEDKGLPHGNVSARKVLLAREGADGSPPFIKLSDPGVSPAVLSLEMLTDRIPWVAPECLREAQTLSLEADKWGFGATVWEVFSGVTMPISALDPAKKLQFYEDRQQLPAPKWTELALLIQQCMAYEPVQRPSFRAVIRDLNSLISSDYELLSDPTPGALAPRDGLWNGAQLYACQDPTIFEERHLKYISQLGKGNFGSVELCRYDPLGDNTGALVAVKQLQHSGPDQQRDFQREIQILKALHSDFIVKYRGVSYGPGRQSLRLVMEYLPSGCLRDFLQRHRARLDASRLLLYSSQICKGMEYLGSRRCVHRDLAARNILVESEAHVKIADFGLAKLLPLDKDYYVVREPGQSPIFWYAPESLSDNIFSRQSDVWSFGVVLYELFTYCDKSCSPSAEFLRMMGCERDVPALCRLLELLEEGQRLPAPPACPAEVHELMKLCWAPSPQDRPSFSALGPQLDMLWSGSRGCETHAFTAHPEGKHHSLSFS
The experiment can be described thus: JAK Caliper Enzyme Assay at 1 mM ATP. The experiment is classed as biochemical. A digest of the protocol: (§1)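 First, compound stocks in DMSO were serially diluted half-log over 11 points, starting at 600 μM. Next, reactions ran with batch-optimized enzyme and timing targeting 20%-30% phosphorylation. Finally, wells were sampled and product separated from substrate peptide electrophoretically.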

Experiment [2] deals with IL-15 induced STAT5 phosphorylation in human whole blood lymphocytes. The experiment can be described thus: HWB IL-15 Induced STAT5 Phosphorylation Assay. The experiment is classed as cell-based. The conditions noted are these: Lymphocyte, IL-15 final 50 ng/ml, read-out: HWB_IL15 pSTAT5 IC50. A digest of the protocol: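 Heparinised human whole blood preincubated with compound (0.2% DMSO final) 45 min at 37° C, then stimulated with human IL-15 (50 ng/ml final) for 15 min. After lyse/fix and Perm Buffer III permeabilisation, stained overnight at 4° C with AlexaFluor647 anti-phospho-STAT5; read by flow cytometry gated on total lymphocytes.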

Experiment [3] concerns the target T1, JAK3 enzyme. The experiment can be described thus: JAK Caliper Enzyme Assay at 4 μM ATP. The experiment is classed as biochemical. Put shortly: as §1
Experiment [4] deals with IL-15 induced P-STAT5 in human PBMC. The experiment can be described thus: PBMC IL-15 Induced P-STAT5. Format: cell-based. The conditions noted are these: human PBMC, IL-15 final 41 ng/mL; read-out: PBMC IL15_pSTAT5_IC50. Put shortly:
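Thawed human PBMC, rested in human plasma, were preincubated 15 min at 37 °C with compound (0.2% DMSO), then stimulated 15 min with IL-15 at 41 ng/mL final. After paraformaldehyde fixation and methanol permeabilisation, Alexa Fluor 647 anti-STAT5 staining overnight at 4 °C was analysed by flow cytometry on total lymphocytes.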

As to `C=CC(=O)N1CCC(Nc2cnc3[nH]cc(C(=O)NCc4sc(C(F)(F)F)nc4C)c3n2)CC1` [Example 180, 2-[(1-acryloylpiperidin-4-yl)amino]-N-{[4-methyl-2-(trifluoromethyl)-1,3-thiazol-5-yl]methyl}-5H-pyrrolo[2,3-b]pyrazine-7-carboxamide], the IC50 came to 12 nM at JAK3 enzyme [1], 944 nM in experiment [2], 0.481 nM at JAK3 enzyme [3] and 204 nM in experiment [4].

Take `C=CC(=O)N1CCC(Oc2cnc3[nH]cc(C(=O)NCCC(F)(F)F)c3n2)CC1` [Example 198, 2-[(1-acryloylpiperidin-4-yl)oxy]-N-(3,3,3-trifluoropropyl)-5H-pyrrolo[2,3-b]pyrazine-7-carboxamide]: the IC50 at JAK3 enzyme [1] is 53 nM; in experiment [2] it was 1400 nM; against JAK3 enzyme [3] it was 0.361 nM; in experiment [4], 250 nM.

Regarding `C=CC(=O)N1CCC(C)(Nc2cnc3[nH]cc(C(=O)NCC(C)C)c3n2)CC1` [Example 301, 2-[(1-acryloyl-4-methylpiperidin-4-yl)amino]-N-(2-methylpropyl)-5H-pyrrolo[2,3-b]pyrazine-7-carboxamide], the IC50 is 44 nM at JAK3 enzyme [1], 3030 nM in experiment [2], 0.431 nM on JAK3 enzyme [3] and 387 nM in experiment [4].

As for `C=CC(=O)N1CCC(Nc2cnc3[nH]cc(C(=O)NCC(F)(F)C(F)(F)F)c3n2)CC1` [Example 179, 2-[(1-acryloylpiperidin-4-yl)amino]-N-(2,2,3,3,3-pentafluoropropyl)-5H-pyrrolo[2,3-b]pyrazine-7-carboxamide], the IC50 against JAK3 enzyme [1] stood at 18 nM; in experiment [2], 850 nM; at JAK3 enzyme [3], 0.596 nM; in experiment [4], 94.8 nM.

As to `C=CC(=O)N1CC[C@@H](Nc2cnc3[nH]cc(C(=O)NCC(C)CC(F)(F)F)c3n2)[C@@H](OC)C1` (mixture of isomers) [Example 269, Racemic-2-{[(3S,4R)-1-acryloyl-3-methoxypiperidin-4-yl]amino}-N-(4,4,4-trifluoro-2-methylbutyl)-5H-pyrrolo[2,3-b]pyrazine-7-carboxamide], the IC50 on JAK3 enzyme [1] turned out to be 82 nM; in experiment [2] it was 1390 nM; at JAK3 enzyme [3] it was 0.888 nM; in experiment [4], 220 nM.

As for `C=CC(=O)N1CCC(Oc2cnc3[nH]cc(C(=O)N[C@@H]4CC[C@H](F)C4)c3n2)CC1` [Example 199, 2-[(1-acryloylpiperidin-4-yl)oxy]-N-[(1R,3S)-3-fluorocyclopentyl]-5H-pyrrolo[2,3-b]pyrazine-7-carboxamide], the IC50 was 47 nM against JAK3 enzyme [1], 2020 nM in experiment [2], 0.414 nM against JAK3 enzyme [3] and 250 nM in experiment [4].

Regarding `C=CC(=O)N1CCN(c2cnc3[nH]cc(C(=O)NCC(C)CC(F)(F)F)c3n2)CC1` (racemic) [Example 279, Racemic-2-(4-acryloylpiperazin-1-yl)-N-(4,4,4-trifluoro-2-methylbutyl)-5H-pyrrolo[2,3-b]pyrazine-7-carboxamide], the IC50 against JAK3 enzyme [1] was 31 nM; in experiment [2], 765 nM; against JAK3 enzyme [3], 0.343 nM; in experiment [4], 107 nM.

As to `C=CC(=O)N1CCN(c2cnc3[nH]cc(C(=O)NC4CCCC4)c3n2)CC1` (racemic) [Example 292, Racemic-2-(4-acryloylpiperazin-1-yl)-N-cyclopentyl-5H-pyrrolo[2,3-b]pyrazine-7-carboxamide], the IC50 on JAK3 enzyme [1] was 17 nM; in experiment [2], 841 nM; on JAK3 enzyme [3], 0.315 nM; in experiment [4], 27.7 nM.

On to `C=CC(=O)N1CCC(Oc2cnc3[nH]cc(C(=O)NCC(C)C)c3n2)CC1` [Example 222, 2-[(1-acryloylpiperidin-4-yl)oxy]-N-(2-methylpropyl)-5H-pyrrolo[2,3-b]pyrazine-7-carboxamide], for which the IC50 was 53 nM against JAK3 enzyme [1], 1020 nM in experiment [2], 0.38 nM on JAK3 enzyme [3] and 280 nM in experiment [4].

Consider `C=CC(=O)N1CC[C@@H](Nc2cnc3[nH]cc(C(=O)NCCCC(F)(F)F)c3n2)[C@@H](OC)C1` [Example 308, 2-{[(3S,4R)-1-acryloyl-3-methoxypiperidin-4-yl]amino}-N-(4,4,4-trifluorobutyl)-5H-pyrrolo[2,3-b]pyrazine-7-carboxamide], for which the IC50 was 48 nM against JAK3 enzyme [1], 775 nM in experiment [2], 0.531 nM against JAK3 enzyme [3] and 306 nM in experiment [4].

As to `C=CC(=O)N1CCC(Nc2cnc3[nH]cc(C(=O)NCc4ccc(OC)c(F)c4)c3n2)CC1` [Example 190, 2-[(1-acryloylpiperidin-4-yl)amino]-N-(3-fluoro-4-methoxybenzyl)-5H-pyrrolo[2,3-b]pyrazine-7-carboxamide], the IC50 against JAK3 enzyme [1] stood at 7 nM; in experiment [2] it was 619 nM; against JAK3 enzyme [3] it was 0.193 nM; in experiment [4] it was 96.9 nM.
